“Also recorded” adds a separate entry of the source.
Legend:
[1] = tested on: mice; test: Forced swim test (FST); type: in vivo; details: 7.5 mg/kg i.p., 60 min before test
Procedure: (§1) The investigated compound (SER2AAK2) was bought from Enamine (purity over 95%) and in all tests was administered intraperitoneally (i.p.), spread in a drop of Tween 80, and diluted with an aqueous solution of 0.5% methylcellulose (tylose) and injected 60 min before the tests in a volume of 10 mL/kg. Control groups received tylose injections of the same volume and via the same route of administration.
The study was carried out using the test proposed by R. Porsolt. The method is based on the observation of an animal forced to swim in a confined space from which there is no escape. After an initial period of vigorous attempts to get out, the animal finally gives up on escaping. The test consists of immersing the mouse individually in a cylindrical beaker (diameter 10 cm, height 25 cm) filled with water (at a temperature of 23–25 °C) at a height of 10 cm for 6 min. The immobility time was measured during the final 4 min of the test (between 2 and 6 min).

[2] = tested on: mice; test: Elevated plus maze (EPM) test; type: in vivo
Procedure: as §1
Anxiety behaviors were measured using the EPM test according to the Lister method. The apparatus consisted of four black-painted arms arranged in a plus-shaped configuration with a central platform (5 × 5 cm). Two opposing arms were open (30 × 5 cm), while the other two were enclosed (30 × 5 × 15 cm). The maze was elevated 38.5 cm above the floor and illuminated with dim, diffuse red light. Experiments were conducted in a quiet, dark room. […] The following parameters were recorded: time spent in the open arms, number of entries into the open arms, and total number of entries into both types of arms.

[3] = tested on: mice; test: Amphetamine-induced hyperactivity; type: in vivo; details: 7.5 mg/kg i.p. 60 min before test, amphetamine 3 mg/kg 30 min later
Procedure: as §1
Locomotor activity of the mice was assessed using the Opto-Varimex-4 Auto-Track system (Columbus Instruments, OH, USA). Each mouse was placed individually in a testing cage for 25 min—5 min for acclimatization, followed by 20 min of activity recording. (6a) The total distance traveled (in centimeters) was measured. Cages were cleaned with 10% ethanol between sessions.

[4] = tested on: mice; test: Motor coordination, rotarod test; type: in vivo; details: for Motor coordination (rotarod, chimney): rotarod and chimney
Procedure: as §1
(§2) The effects of the SER2AAK2 compound were also measured in the rotarod and chimney tests. In the rotarod test, mice were evaluated for their ability to maintain balance on a constantly rotating rod (18 rpm) for 1 min. The chimney test involved placing a mouse in a horizontal polymer tube (3 cm diameter, 25 cm length). Once the mouse reached the far end, the tube was positioned vertically, requiring the animal to climb backwards to exit. Right motor coordination was defined as exiting the chimney within 60 s. Prior to testing, mice underwent a 3-day training. Only those animals that were able to stay on the rotating rod or leave the chimney within the required time were included in the study.

[5] = PAMPA membrane permeability; type: in vitro ADME; details: 100 µM in PBS pH 7.4, 5 h
Procedure: In this study, PAMPA was employed to evaluate the passive diffusion of SERAAK2 through a lipid-infused artificial membrane.
The membrane permeability assay was conducted employing the pre-coated PAMPA Plate System Gentest from Corning (Tewksbury, MA, USA), following the manufacturer’s provided instructions. SERAAK2, along with reference compounds, were prepared in PBS buffer at a pH of 7.4 to reach a final concentration of 100 µM, and these solutions were loaded onto the donor plate of the 96-well system. […] The permeability coefficient (Pe, expressed in cm/s) was subsequently derived by applying the calculation formula supplied by the manufacturer of the PAMPA system.

[6] = tested on: HepG2 cells; test: MTS cytotoxicity assay in HepG2 cells; type: cell-based, human; details: 72 h
Procedure: The cytotoxic potential of SERAAK2 was evaluated in two human-derived cell lines chosen for their physiological relevance: HepG2 (hepatocellular carcinoma) and SH-SY5Y (neuroblastoma). […] It is particularly noteworthy that the use of the SERAAK2 compound at a concentration of 30 µM reduces the number of viable cells below the level of the positive control (doxorubicin) at the same concentration (Table 3). […] Under the experimental conditions used, after 72 h of incubation, a fraction of doxorubicin-treated cells remains metabolically active and generates a low signal in the MTS assay. The enhanced signal reduction observed in the MTS assay for the tested compound, compared to doxorubicin, indicates strong cytotoxic activity leading to necrosis of the entire cell population.
An assessment of the cytotoxic potential of SERAAK2 was carried out utilizing the colorimetric MTS assay. This investigation was executed on both HepG2 and SH-SY5Y cell lines, adhering to an identical procedure. The cell lines, sourced from the American Type Culture Collection (Manassas, VA, USA), were cultured under standard conditions (5% CO2, 37 °C) in DMEM/F12 medium (#31330-038, ThermoFisher Scientific, Waltham, MA, USA). The medium was supplemented with 10% Fetal Bovine Serum (FBS, #A5256801, ThermoFisher Scientific) and a Penicillin–Streptomycin solution (#15140-122, ThermoFisher Scientific) until their use in the study. Cells within passage numbers 15 to 25 were plated in 96-well plates at a density of 5000 cells per well in 200 μL of medium and allowed to adhere during a 24 h incubation at 37 °C with 5% CO2. […] The plates were then subsequently returned to the 37 °C incubator, after which absorbance was recorded with a Spark microplate reader; this measurement occurred after 1 h for the HepG2 line and 3 h for the SH-SY5Y line. The ultimate cell viability percentage was determined by comparing results to the control wells, which represented 100% viability, and the wells treated with 10 μM doxorubicin, which were defined as 0% viability. […]

[7] = tested on: mice; test: Motor coordination, chimney test; type: in vivo; details: 7.5 mg/kg i.p., 60 min before test, similar to control
Procedure: as §1, §2

[8] = molecular target: serotonin 5-HT2A receptor; parameters: method as in PMID 38619283; details: cited from earlier work

OC(CNCCc1c[nH]c2ccccc12)COc1ccc(Oc2ccccc2)cc1 (centres unmarked) [SERAAK2]
FST immobility time [1]: significant decrease in immobility time; also recorded: ↓ immobility (7.5 mg/kg) antidepressant-like effect connected with serotonergic modulation | Elevated plus maze (EPM), open arm time and entries ([2]; 7.5 mg/kg): ↑ open arm time and entries (7.5 mg/kg)—anxiolytic effect | EPM total number of entries into both open and closed arms ([2]; 7.5 mg/kg i.p.): remained unchanged | EPM percentage of open arm entries ([2]; 7.5 mg/kg i.p., p < 0.01 vs control): significant increase | EPM percentage of time spent in the open arms ([2]; 7.5 mg/kg i.p., p < 0.05 vs control): significant increase | amphetamine-induced hyperactivity [3]: did not significantly modify this hyperactivity; also recorded: no effect | time held on rotating rod ([4]; mice, 7.5 mg/kg i.p., 60 min before test, test length 1 min): about 60 s | Motor coordination (rotarod, chimney) ([4]; mice, 7.5 mg/kg): inactive; also recorded: no effect | Motor coordination (rotarod, chimney) ([4]; mice, 15–60 mg/kg): impairment | motor coordination in the rotarod test ([4]; mice, 60, 30 and 15 mg/kg i.p., 60 min before test): significant disturbances in motor coordination | Pe ± SD [5]: 1.1 ×10⁻⁶ cm/s | Papp at 5 h, 100 µM ([5]; read-out: Pe ± SD): 1.1 ± 0.35 ×10⁻⁶ cm/s | cytotoxic effects in HepG2 cells ([6]; 0.3 µM): no cytotoxic effects | HepG2 cell viability ([6]; 3 µM): 85 % of the control | Percentage Reduction in the Number of Viable HepG2 Cells [Mean ± SEM] ([6]; 30 µM): 104 ± 1% | time to leave the chimney [7]: about 13 s | Ki [8]: 0.422 ± 0.074 µM

Source: article PMC12693327, “SERAAK2 as a Serotonin Receptor Ligand: Structural and Pharmacological In Vitro and In Vivo Evaluation” (Molecules, 2025)
